Tested on: 233499-124-R-J3-PDC complex spheroid viability
Assay: Anticancer human tumor 233499-124-R-J3-PDC patient-derived colon adenocarcinoma cell line growth inhibition [CLK]
Conditions: for IC50: curve of first compound; for viability, T/C: stronger effect = lower value
Text: A high-throughput screen of multi-cell type tumor spheroids was designed to identify active combinations of […] and targeted small molecules. Complex spheroids include a stromal component modeled by human endothelial cells (HUVEC) and fibroblasts modeled by human mesenchymal stem cells (MSCs). The concentration ranges selected for each drug and investigational agent were based upon clinically achievable concentrations if the clinical Cmax of the agent was known.
Compounds. The drugs and investigational agents: cirtuvivint (SM08502; NSC835563), CC-671 (NSC850746), vemurafenib (NSC761431), tapotoclax (NSC804041), sotorasib (NSC818433), adagrasib (NSC831453), MRTX-1133 (NSC836407), BAY2416964 (NSC825713), copanlisib (NSC816437), inavolisib (NSC800729), abemaciclib (NSC768073), osimertinib (NSC779217), entinostat (NSC756642), eltanexor (KPT-8602, NSC794443), venetoclax (NSC766270), ceralasertib (NSC777638), bortezomib (NSC756655), olaparib (NSC753686), talazoparib (NSC767125), alisertib (NSC759677), peposertib (NSC802822), gemcitabine (NSC613327), 5-fluorouracil (NSC19893), SN-38 (NSC673596), oxaliplatin (NSC266046), paclitaxel (NSC125973), and doxorubicin (NSC123127), were obtained from the National Cancer Institute (NCI) Developmental Therapeutics Program Chemical Repository. The FDA-approved anticancer drug set is available from the Developmental Therapeutics Program at https://dtp.cancer.gov/organization/dscb/obtaining/available plates.htm. […] The stock solutions were prepared in dimethyl sulfoxide (DMSO, Sigma-Aldrich, St. Louis, MO, cat. D2650), except for the platinum complexes which were prepared in saline (Quality Biological, Gaithersburg, MD, cat. 114-055-101), at 800-fold the tested concentration and stored at -70 degrees C prior to their use. All drugs and investigational agents were tested over a range starting from a high concentration at or near the clinical Cmax and decreasing in half-log increments. If the clinical Cmax for an agent had not been determined, the highest concentration tested was 10 microM.
Cell Culture. All cells were maintained in an incubator at 37 degrees C and 5% CO2 with 95% humidity. The PDC lines were cultured according to standard operating procedures established by the NCI PDMR. Briefly, all PDCs were thawed and cultured in Matrigel-coated flasks prepared with a working solution of 1X Ham's F-12 nutrient mix, without supplementation (Invitrogen, Waltham, MA, cat. 11765054), 100 U/mL penicillin-streptomycin (Invitrogen, cat. 15140122), and 2.5% Matrigel (Corning Inc., Corning, NY, cat. 354248) for the first three passages. The 947758-054-R-J2-PDC line was cultured in 6B/Colon 1A media, which includes advanced DMEM/F-12 (Thermo Fisher Scientific, cat. 12634028), 10 mM HEPES (Thermo Fisher Scientific, cat. 15630080), 1X GlutaMAX supplement (Thermo Fisher Scientific, cat. 35050061), 0.1 mg/mL primocin (InvivoGen, cat. ant-pm-2), 10% defined fetal bovine serum, heat inactivated (HyClone Laboratories Inc., cat. SH30070.03HI), 1.25 mM N-Acetyl-L-cysteine (Sigma-Aldrich, cat. A9165), 10 mM nicotinamide (Sigma-Aldrich, cat. N0636), 1X B-27 supplement (Thermo Fisher Scientific, cat. 17504044), 1X N-2 supplement (Thermo Fisher Scientific, cat. 17502048), and 10 microM Y-27632 dihydrochloride (Tocris Bioscience, cat. 1254). The 876862-298-R-J1-PDC was cultured in 6E media, which includes all 6B/Colon 1A media components plus 50% L-WRN conditioned media (ATCC, cat. CRL-3276), 50 ng/mL recombinant human EGF recombinant protein (hEGF; Thermo Fisher Scientific, cat. PHG0311), 10 ng/mL recombinant human fibroblast growth factor 10 (hGFG-10; PeproTech, cat. 100-26), 1 ng/mL recombinant human fibroblast growth factor 2 (hFGF-2; PeproTech, cat. 100-18B), and 1 µM prostaglandin E2 (PGE2; Tocris, cat. 2296). The 227483-062-R1-J1-PDC line was cultured in Panc media, containing all 6E components except hFGF-2, with the addition of 500 nM SB-431542 (Selleckchem, cat. S1067) and 10 nM gastrin (Tocris, cat. 3006). […]
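Note: spheroids exposed to the drug combinations for seven days.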
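Throughout, for viability, T/C: percent viability relative to DMSO vehicle control wells taken as 100%.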

For `C=CC(=O)Nc1cc(Nc2nccc(-c3cn(C)c4ccccc34)n2)c(OC)cc1N(C)CCN(C)C` + CN1CCN(c2cc(C(=O)Nc3cc4cc(-c5cnn(C)c5)ccc4cn3)ccn2)CC1, which IC50 (second compound 0.0316 µM) is on record?
Its IC50 is greater than 300 nM.

What about the IC50 (second compound 0.1 µM) of the same molecule?
The IC50 was greater than 300 nM.

What about the IC50 (second compound 0.316 µM) of the same molecule?
The IC50 was greater than 300 nM.

And the IC50 (second compound 1 µM)?
The IC50 was less than 0.949 nM.

What about the IC50 (second compound 3.16 µM) of the same molecule?
Its IC50 is less than 0.949 nM.

And the IC50 (second compound 10 µM)?
The IC50 was less than 0.949 nM.

What about the viability, T/C (second compound 0.0316 µM, first compound 0.000949 µM) of the same molecule?
The viability, T/C was 85.9%.

And the viability, T/C (second compound 0.0316 µM, first compound 0.003 µM)?
The viability, T/C was 100%.

And the viability, T/C (second compound 0.0316 µM, first compound 0.00949 µM)?
Its viability, T/C is 102%.

What about the viability, T/C (second compound 0.0316 µM, first compound 0.03 µM) of the same molecule?
Its viability, T/C is 104%.

What about the viability, T/C (second compound 0.0316 µM, first compound 0.0949 µM) of the same molecule?
The viability, T/C was 99.3%.

What about the viability, T/C (second compound 0.0316 µM, first compound 0.3 µM) of the same molecule?
Its viability, T/C is 91.8%.

What about the viability, T/C (second compound 0.1 µM, first compound 0.000949 µM) of the same molecule?
Its viability, T/C is 98%.

What about the viability, T/C (second compound 0.1 µM, first compound 0.003 µM) of the same molecule?
Its viability, T/C is 102%.

What about the viability, T/C (second compound 0.1 µM, first compound 0.00949 µM) of the same molecule?
The viability, T/C was 93.7%.

What about the viability, T/C (second compound 0.1 µM, first compound 0.03 µM) of the same molecule?
Its viability, T/C is 97.9%.

And the viability, T/C (second compound 0.1 µM, first compound 0.0949 µM)?
The viability, T/C was 94.5%.

And the viability, T/C (second compound 0.1 µM, first compound 0.3 µM)?
The viability, T/C was 83%.

What about the viability, T/C (second compound 0.316 µM, first compound 0.000949 µM) of the same molecule?
Its viability, T/C is 90.3%.

And the viability, T/C (second compound 0.316 µM, first compound 0.003 µM)?
Its viability, T/C is 92.2%.

What about the viability, T/C (second compound 0.316 µM, first compound 0.00949 µM) of the same molecule?
The viability, T/C was 89.7%.

What about the viability, T/C (second compound 0.316 µM, first compound 0.03 µM) of the same molecule?
The viability, T/C was 89.4%.

What about the viability, T/C (second compound 0.316 µM, first compound 0.0949 µM) of the same molecule?
Its viability, T/C is 93.8%.

And the viability, T/C (second compound 0.316 µM, first compound 0.3 µM)?
Its viability, T/C is 76.6%.

And the viability, T/C (second compound 1 µM, first compound 0.000949 µM)?
The viability, T/C was 4.73%.

What about the viability, T/C (second compound 1 µM, first compound 0.003 µM) of the same molecule?
The viability, T/C was 9.3%.

What about the viability, T/C (second compound 1 µM, first compound 0.00949 µM) of the same molecule?
The viability, T/C was 0.69%.

What about the viability, T/C (second compound 1 µM, first compound 0.03 µM) of the same molecule?
Its viability, T/C is 1.14%.

And the viability, T/C (second compound 1 µM, first compound 0.0949 µM)?
Its viability, T/C is 0.77%.

And the viability, T/C (second compound 1 µM, first compound 0.3 µM)?
The viability, T/C was 0.67%.

What about the viability, T/C (second compound 3.16 µM, first compound 0.000949 µM) of the same molecule?
Its viability, T/C is 0.69%.

And the viability, T/C (second compound 3.16 µM, first compound 0.003 µM)?
Its viability, T/C is 0.65%.

And the viability, T/C (second compound 3.16 µM, first compound 0.00949 µM)?
Its viability, T/C is 0.63%.

What about the viability, T/C (second compound 3.16 µM, first compound 0.03 µM) of the same molecule?
The viability, T/C was 0.6%.

What about the viability, T/C (second compound 3.16 µM, first compound 0.0949 µM) of the same molecule?
The viability, T/C was 0.55%.

What about the viability, T/C (second compound 3.16 µM, first compound 0.3 µM) of the same molecule?
The viability, T/C was 1.62%.

And the viability, T/C (second compound 10 µM, first compound 0.000949 µM)?
Its viability, T/C is 0.51%.

What about the viability, T/C (second compound 10 µM, first compound 0.003 µM) of the same molecule?
The viability, T/C was 0.59%.

What about the viability, T/C (second compound 10 µM, first compound 0.00949 µM) of the same molecule?
The viability, T/C was 0.58%.

What about the viability, T/C (second compound 10 µM, first compound 0.03 µM) of the same molecule?
The viability, T/C was 0.51%.

And the viability, T/C (second compound 10 µM, first compound 0.0949 µM)?
Its viability, T/C is 0.4%.

What about the viability, T/C (second compound 10 µM, first compound 0.3 µM) of the same molecule?
The viability, T/C was 0.27%.

What does the source list for `CCN1CCN(Cc2ccc(Nc3ncc(F)c(-c4cc(F)c5nc(C)n(C(C)C)c5c4)n3)nc2)CC1` + CN1CCN(c2cc(C(=O)Nc3cc4cc(-c5cnn(C)c5)ccc4cn3)ccn2)CC1?
IC50 (second compound 0.0316 µM): > 1000 nM; IC50 (second compound 0.1 µM): > 1000 nM; IC50 (second compound 0.316 µM): > 1000 nM; IC50 (second compound 1 µM): < 3.16 nM; IC50 (second compound 3.16 µM): < 3.16 nM; IC50 (second compound 10 µM): < 3.16 nM; viability, T/C (second compound 0.0316 µM, first compound 0.00316 µM): 96.4%; viability, T/C (second compound 0.0316 µM, first compound 0.01 µM): 87.2%; viability, T/C (second compound 0.0316 µM, first compound 0.0316 µM): 81.5%; viability, T/C (second compound 0.0316 µM, first compound 0.1 µM): 107%; viability, T/C (second compound 0.0316 µM, first compound 0.316 µM): 97.9%; viability, T/C (second compound 0.0316 µM, first compound 1 µM): 97.4%; viability, T/C (second compound 0.1 µM, first compound 0.00316 µM): 91.5%; viability, T/C (second compound 0.1 µM, first compound 0.01 µM): 114%; viability, T/C (second compound 0.1 µM, first compound 0.0316 µM): 83.1%; viability, T/C (second compound 0.1 µM, first compound 0.1 µM): 90.5%; viability, T/C (second compound 0.1 µM, first compound 0.316 µM): 93.1%; viability, T/C (second compound 0.1 µM, first compound 1 µM): 93.1%; viability, T/C (second compound 0.316 µM, first compound 0.00316 µM): 92.7%; viability, T/C (second compound 0.316 µM, first compound 0.01 µM): 91.6%; viability, T/C (second compound 0.316 µM, first compound 0.0316 µM): 96.2%; viability, T/C (second compound 0.316 µM, first compound 0.1 µM): 87.5%; viability, T/C (second compound 0.316 µM, first compound 0.316 µM): 86.9%; viability, T/C (second compound 0.316 µM, first compound 1 µM): 77.9%; viability, T/C (second compound 1 µM, first compound 0.00316 µM): 6.1%; viability, T/C (second compound 1 µM, first compound 0.01 µM): 0.82%; viability, T/C (second compound 1 µM, first compound 0.0316 µM): 1.32%; viability, T/C (second compound 1 µM, first compound 0.1 µM): 4.68%; viability, T/C (second compound 1 µM, first compound 0.316 µM): 6.35%; viability, T/C (second compound 1 µM, first compound 1 µM): 2.16%; viability, T/C (second compound 3.16 µM, first compound 0.00316 µM): 0.75%; viability, T/C (second compound 3.16 µM, first compound 0.01 µM): 0.56%; viability, T/C (second compound 3.16 µM, first compound 0.0316 µM): 0.71%; viability, T/C (second compound 3.16 µM, first compound 0.1 µM): 0.69%; viability, T/C (second compound 3.16 µM, first compound 0.316 µM): 1.11%; viability, T/C (second compound 3.16 µM, first compound 1 µM): 1.38%; viability, T/C (second compound 10 µM, first compound 0.00316 µM): 0.5%; viability, T/C (second compound 10 µM, first compound 0.01 µM): 0.56%; viability, T/C (second compound 10 µM, first compound 0.0316 µM): 1.04%; viability, T/C (second compound 10 µM, first compound 0.1 µM): 0.52%; viability, T/C (second compound 10 µM, first compound 0.316 µM): 0.59%; viability, T/C (second compound 10 µM, first compound 1 µM): 0.61%
